Data taken from patent US20090215893A1, “Parakeratosis inhibitor, pore-shrinking agent,or rough skin preventing/ameliorating agent, and external composition for skin” (Shiseido Company Ltd, priority 2005, published 2009).

Columns and labels:
[1] = system: back of hairless mice (HR-1), 10 mass % oleic acid applied; assay: Inhibiting effect against rough skin induced by oleic acid application (transepidermal water loss); assay type: in vivo; set-up: ΔTEWL value: unit not given here; conditions: for ΔTEWL value: sample 3 mass %, three days, average of four animals, rough skin worse as value increases, control 12.0; for ΔTEWL value compared with the control aqueous solution / rough skin preventing/ameliorating effect: summary of Table 3, concentrations as in Table 3
Description: In order to investigate the inhibiting effect of α-amino acid derivatives and salts thereof against rough skin induced by oleic acid application, the transepidermal water loss (TEWL value) before and after application was measured, the difference was compared with the control (control aqueous solution), and the effect was determined. Sample preparation and the application method were in accordance with Example 1. The TEWL was determined using the TM210 TEWA Meter (Courage+Khazaka Electronic GmBH).
100 μL of 10 mass % oleic acid (solvent: ethanol) was applied to the back of hairless mice (HR-1, four mice per group). Then a sample solution (α-amino acid derivatives, and the like) was applied 100 μL at a time. This procedure was continued for three days. The following day, the TEWL value of the back was determined and the values of the four animals were averaged. Rough skin became worse as the ΔTEWL value increased.

[2] = system: pores of the cheeks of healthy human males; assay: Human pore-shrinking effect (replica assessment of cheek pores); assay type: in vivo; conditions: for Replica assessment (average of n = 5): sample 3 mass %, twice a day for one month, pore size rating 1-13, after application minus before application, control 0.3; for pore-shrinking effect: summary of Table 2, concentrations as in Table 2
Description: An experiment was conducted whereby a sample was applied twice a day for one month to the cheeks of healthy human males in groups of 5 men each. Aqueous solutions (containing 15 mass % of ethanol) of 3 mass % of the α-amino acid derivative or a salt thereof were prepared as the evaluation sample. The pH was regulated by hydrochloric acid or sodium hydroxide so as to be 7.0 to 7.5. When sample solubility was low, the solution was prepared accordingly. The control was an aqueous 15% ethanol solution. The sample aqueous solution and control aqueous solution were applied to one half of the face at a time.
A replica was collected before and after continuous application, and changes in the shape of the pores at the same site were observed using a three-dimensional laser scanning microscope. The size of the pores was macroscopically evaluated in 13 steps of 1 through 13 (with the pores becoming larger as the numbers became larger), the difference in the ratings before and after application (after application-before application) was calculated, and the efficacy of each sample was studied using this difference as the replica assessment.

[3] = system: back of a hairless mouse (HR-1), 10 mass % oleic acid applied; assay: Parakeratosis-inhibiting effect tests: oleic acid applied to hairless mouse back, macroscopic rough skin evaluation and parakeratosis value; assay type: in vivo; conditions: for Macroscopic evaluation (average of four animals) / Parakeratosis value (average of four animals): sample 3 mass %; for Macroscopic evaluation (average of four animals): 100 μL after oleic acid, three days, rough skin score 0.0 (no redness) to 2.0 (control); for Parakeratosis value (average of four animals): tape-stripped stratum corneum, hematoxylin, range 1.0 to 3.0, higher = parakeratosis advanced, control 2.0; for parakeratosis value / parakeratosis-inhibiting effect / rough skin preventing effect, based on stratum corneum peeling and redness: summary of Table 1, concentrations as in Table 1
Description: Aqueous solutions (containing 30 mass % of ethanol) of primarily 3 mass % of an α-amino acid derivative or salt thereof were prepared as the evaluation sample. The pH was regulated by hydrochloric acid or sodium hydroxide so as to be 7.0 to 7.5. When sample solubility was low, the solution was prepared accordingly.
100 μL of 10 mass % oleic acid solution (solvent: ethanol) were applied to the back of a hairless mouse (HR-1; Hoshino Laboratory Animals). Then the sample solution (α-amino acid derivative, and the like) was applied 100 μL at a time. This procedure was continued for three days. […] The status of the skin was evaluated in 0.25-point intervals, with skin where the control (control aqueous solution) had been applied being 2.0 and skin where there was no redness being 0.0. At the same time, the stratum corneum at the back of the hairless mouse was peeled off with tape, the nuclei were stained by hematoxylin, and the degree of parakeratosis was observed and evaluated by a parakeratosis value within a range of 1.0 to 3.0 (in 0.25 increments).

[4] = system: cheek of a panel of 20 women; assay: Sensory irritation tests; assay type: in vivo, human; conditions: for Evaluation (sensory irritation, class of average rating): sample 3 mass %, 1 mL on cheek, evaluated for ten minutes, 20 women; for sensory irritation: summary of Table 4, β-alanine at 3%
Description: 1 mL of a control aqueous solution and the sample aqueous solution prepared in Example 1 were applied using a cotton swab to the left or right cheek, respectively, of a panel of 20 women, the irritating sensation was evaluated every 30 seconds for ten minutes beginning immediately after application, and a final evaluation was reported. The evaluation of the irritating sensation was based on the following four steps of rating criteria, the average rating was calculated, and the average was classified by the following criteria.
3: Discontinued because of extremely strong irritation, such as stinging sensation, burning sensation, tickling sensation, itching, and the like.
2: Intolerable strong irritation, such as stinging sensation, burning sensation, tickling sensation, itching, and the like.
1: Tolerable with only slight stinging sensation, burning sensation, tickling sensation, itching, and the like.
0: Not particularly irritating.
A: average rating of less than 0.2
B: average rating of 0.2 to less than 1.0
C: average rating of 1.0 to less than 2.0
D: average rating of 2.0 or greater

Row | Structure (SMILES) | ΔTEWL value [1] | ΔTEWL value compared with the control aqueous solution / rough skin preventing/ameliorating effect [1] | Replica assessment (average of n = 5) [2] | pore-shrinking effect [2] | Macroscopic evaluation (average of four animals) [3] | Parakeratosis value (average of four animals) [3] | parakeratosis value / parakeratosis-inhibiting effect [3] | rough skin preventing effect, based on stratum corneum peeling and redness [3] | Evaluation (sensory irritation, class of average rating) [4] | sensory irritation [4]
1 | C[C@H](NC(=O)OCc1ccccc1)C(=O)O [N-carbobenzoyloxy-L-alanine] | 6.9 | significantly lower | −0.9 | seen | 1.2 | 1.3 | reduced | seen | A (average rating of less than 0.2) | no problems
2 | O=C(N[C@@H](CO)C(=O)O)OCc1ccccc1 [N-carbobenzoyloxy-L-serine] | 6.7 | significantly lower | −1.2 | seen | 1.2 | 1.1 | reduced | seen | A (average rating of less than 0.2) | no problems
3 | C[C@@H](NC1CCCCC1)C(=O)O [N-cyclohexyl-D-alanine] | 6.9 | significantly lower | −1.3 | seen | 1.3 | 1.4 | reduced | seen | A (average rating of less than 0.2) | no problems
4 | O=C(O)[C@@H](CO)NC1CCCCC1 [N-cyclohexyl-D-serine] | 6.8 | significantly lower | −1.3 | seen | 1.3 | 1.2 | reduced | seen | A (average rating of less than 0.2) | no problems
5 | C[C@H](NC1CCCCC1)C(=O)O [N-cyclohexyl-L-alanine] | 7.1 | significantly lower | −1.2 | seen | 1.4 | 1.3 | reduced | seen | A (average rating of less than 0.2) | no problems
6 | O=C(O)[C@H](CO)NC1CCCCC1 [N-cyclohexyl-L-serine] | 7.0 | significantly lower | −1.4 | seen | 1.3 | 1.2 | reduced | seen | A (average rating of less than 0.2) | no problems
7 | O=C(O)CNC1CCCCC1 [N-cyclohexyl-glycine] | 6.4 | significantly lower | −1.5 | seen | 1.2 | 1.1 | reduced | seen | A (average rating of less than 0.2) | no problems
8 | CCN[C@H](C)C(=O)O [N-ethyl-D-alanine] | 8.3 | significantly lower | −0.5 | seen | 1.6 | 1.7 | reduced | seen | A (average rating of less than 0.2) | no problems
9 | CCN[C@H](CO)C(=O)O [N-ethyl-D-serine] | 7.9 | significantly lower | −1.2 | seen | 1.3 | 1.3 | reduced | seen | A (average rating of less than 0.2) | no problems
10 | CCN[C@@H](C)C(=O)O [N-ethyl-L-alanine] | 8.4 | significantly lower | −0.4 | seen | 1.5 | 1.4 | reduced | seen | A (average rating of less than 0.2) | no problems
